Literature values in patent publication US20240390871A1, “Production of encapsulated nanoparticles at high volume fractions” (iCeutica Pty Ltd., priority 2009, published 2024).

Conditions: previous animal studies; reducing the size of metaxalone

For `Cc1cc(C)cc(OCC2CNC(=O)O2)c1` (stereo not shown) [metaxalone], which “rates of absorption and overall bioavailability (as measured by AUC)” value is on record?
Its value is “much higher rates of absorption and overall bioavailability”.
